Laboratory results: PMC10439952, “JT002, a small molecule inhibitor of the NLRP3 inflammasome for the treatment of autoinflammatory disorders” (Scientific Reports, 2023)

System: OVA sensitized, OVA challenged and iTreg transferred CD8α-/- mice
Experiment: Murine model of iTreg induced IL-17-dependent neutrophilic asthma
Type: in vivo, mouse
Experimental: In an allergen-dependent, inducible regulatory T cell (iTreg) model of IL-17-dependent neutrophilic asthma, ovalbumin (OVA) sensitized recipient CD8α^−/− mice are administered iTreg cells intratracheally (i.t.) on Day 26 after the first OVA challenge and subsequently challenged with OVA on Days 26–28[48] (Fig. 5A). This model elicits TH17-dependent IL-17 release that promotes airway neutrophilia and enhanced airway hyperresponsiveness (AHR) to inhaled methacholine. We investigated the effect of JT002 at two doses in OVA sensitized, OVA challenged and iTreg transferred CD8α^−/− mice. JT002 was administered to mice once daily (QD) by oral gavage (p.o.) on Days 23–29 at 2.5 mg/kg (n = 3/group) and at 25 mg/kg (n = 7/group) before evaluation of airway hyperresponsiveness (AHR) and airway inflammation on Day 30 (Fig. 5A). Additional control groups included vehicle treated disease animals (OVA/OVA + iTregs; n = 7/group), OVA sensitized, OVA challenged control animals (OVA/OVA; n = 6/group) and phosphate buffer saline (PBS) sensitized, OVA challenged animals (PBS/OVA; n = 4/group). […] Sensitization and challenge with OVA led to an increase in total serum IgE as well as OVA-specific serum IgE, IgG1 and IgG2b even in the absence of iTreg instillation (Fig. 5E, Supplementary Fig. 4C).
CD4^+CD25^− T cells were enriched from spleens of naïve C57BL/6 mice to > 98% purity with MACS beads (Miltenyi Biotec, Bergisch-Gladbach, Germany). Cells were washed, counted, and resuspended to a final concentration of 4 × 10^6 cells per mL and cultured in X-Vivo 15 (Lonza, Wakersville, MD) supplemented with 5 ng/mL IL-2 and stimulated with bound anti-CD3 and 2 μg/mL soluble anti-CD28 with 5 ng/mL TGF-β for five to seven days to generate iTregs. Female CD8α^−/− C57BL6/j mice were sensitized by intraperitoneal injection of 20 μg OVA (Sigma Aldrich, St. Louis, MO) emulsified in 2.25 mg alum hydroxide (Imject Alum, Pierce, Rockford, IL) in a total volume of 100 μL on Days 0 and 14. Sensitized and challenged mice, denoted OVA/OVA, and non-sensitized but challenged littermates (PBS/OVA) received aerosol challenges for 20 min each day on three consecutive days (Days 26–28) with 1% OVA in PBS using an ultrasonic nebulizer (Omron, Vernon Hills, IL). On Day 26, differentiated iTregs cells generated in vitro were washed and adoptively transferred (5 × 10^5 in 50 μL of PBS) into OVA/OVA mice, denoted as OVA/OVA + iTregs. OVA/OVA + iTregs mice were dosed orally with JT002 at 2.5 or 25 mg/kg once daily on Days 23–29 or with vehicle (0.5% methyl cellulose, 0.25% Tween 80 in 50 mM NaH2PO4/Na2HPO4 at pH 8).
Determination of airway hyperresponsiveness (AHR) AHR was assessed on Day 30 (iTreg model) or 3 h after the O3 exposure (ozone model) as a change in airway resistance (cm H2O/mL/s) after challenge with aerosolized methacholine with using a whole body plethysmograph-based system (National Jewish Medical and Research Center, Denver, CO). Methacholine aerosol was administered by nebulization in increasing concentrations (12.5–100 mg/mL) and RL was continuously computed by fitting flow, volume, and pressure to an equation of motion (Labview, National Instruments, Dallas, TX). Bronchoalveolar Lavage Immediately after assessment of AHR, lungs were lavaged via the tracheal tube with 1 mL of Hanks’ balanced salt solution (Gibco, Grand Island, NY). Total cell numbers were counted. Differential cell counts for neutrophils and macrophages were performed in a blinded fashion by counting at least 200 cells on cytocentrifuged preparations (Model Cytospin 3, Shandon Ltd, Runcorn, UK) stained with Leukostat (Fisher Diagnostics, Fair Lawn, NJ). Cell-free BAL fluid was stored at − 80 °C until measurements of cytokine levels by ELISA (eBioscience, San Diego, CA) were performed. Blood Collection Immediately following AHR measurement, mice were euthanized by exsanguination and blood collected for serum. Samples were stored at − 80 °C for subsequent measurement of immunoglobulin levels by ELISA. […]

[1] = low dose 2.5 mg/kg p.o. QD Days 23–29

CO[C@@H]1COc2c(S(=O)(=O)NC(=O)Nc3c4c(cc5c3CCC5)CCC4)cnn2C1 [JT002]
BAL IL-6 concentration (25 mg/kg p.o. QD Days 23–29): significantly decreased
BAL IL-10 concentration (25 mg/kg p.o. QD Days 23–29): strong trend for increased
BAL IL-17 concentration (25 mg/kg p.o. QD Days 23–29): significantly decreased
BAL INFγ concentration (25 mg/kg p.o. QD Days 23–29): increased
airway eosinophilia (25 mg/kg p.o. QD Days 23–29): no effect
airway hyperresponsiveness (AHR) (25 mg/kg p.o. QD Days 23–29): significantly decreased
airway neutrophilia (25 mg/kg p.o. QD Days 23–29): significantly decreased
submucosal inflammatory cell infiltration (25 mg/kg p.o. QD Days 23–29): visibly decreased
serum OVA-specific IgE (high dose (25 mg/kg)): significant decrease
serum OVA-specific IgG isoforms (high dose (25 mg/kg)): no significant effect
serum total IgE (high dose (25 mg/kg)): significant decrease
airway hyperresponsiveness (AHR) [1]: no significant changes
airway inflammation [1]: no significant changes
